Laboratory results as given in US8916594B2, “5-membered ring heteroaromatic derivatives having NPY Y5 receptor antagonistic activity” (Shionogi & Co., Ltd., priority 2011, dated 2014).

Columns and labels:
[1] = biological target: mouse NPY Y5 receptor (Mus musculus (Mouse), UniProt O70342); assay: Affinity for mouse NPY Y5 receptor ([125I] peptide YY binding, CHO cell membranes); conditions: membranes from CHO cells expressing mouse NPY Y5 receptor, [125I] peptide YY 60 pM, 25° C., 2 hours; read-out: 50% inhibitory concentration against the specific peptide YY binding (IC50 value)
From the text: cDNA sequence encoding a mouse NPY Y5 receptor (Biochim. Biophys. Acta 1328:83-89, 1997) was cloned in a vector (pME18S, Takebe et al. Mol. Cell. Biol. 8, 8957). The obtained expression vector was transfected into CHO cells as a host by using Lipofect AMINE reagent (Trademark, Gico BRL Co., Ltd.) according to the instruction manual. The cells that stably express NPY Y5 receptor were obtained.
(§1) The membranes prepared from the CHO cells expressing NPY Y5 receptor, the compound of this invention and 30,000 cpm [^125I] peptide YY (60 pM of final concentration: Healthcare) were incubated in the assay buffer (20 mM HEPES-Hanks buffer containing 0.1% bovine serum albumin, pH 7.4) at 25° C. for 2 hours, and then the membrane was filtered from the mixture through a glass filter (GF/C) presoaked with 1% polyethyleneimine. After washing with 50 mM Tris-HCl buffer (pH 7.4), radioactivity retained on the filters was quantified with a gamma counter. Nonspecific binding was defined as the amount of radioactivity bound to the membranes after incubation in the presence of 200 nM of peptide YY. The 50% inhibitory concentration of the test compound against the specific peptide YY binding (IC50 value) was calculated (Inui, A. et al. Endocrinology 131, 2090-2096 (1992)).

[2] = biological target: T1, human NPY Y5 receptor (Homo sapiens (Human), UniProt Q15761); assay: Affinity for human NPY Y5 receptor ([125I] peptide YY binding, CHO cell membranes); conditions: membranes from CHO cells expressing human NPY Y5 receptor, [125I] peptide YY 60 pM, 25° C., 2 hours; read-out: 50% inhibitory concentration against the specific peptide YY binding (IC50 value)
From the text: cDNA sequence encoding a human NPY Y5 receptor (WO96/16542) was cloned in a vector (pME18S, Takebe et al. Mol. Cell. Biol. 8, 466-472). The obtained expression vector was transfected into CHO cells as a host by using Lipofect AMINE reagent (Trademark, Inbitrogen) according to the instruction manual. The cells that stably express human NPY Y5 receptor were obtained.
as §1, with “expressing human” for “expressing”, “[…]” for “[^125I]”, “glassfilter” for “glass filter”

[3] = biological target: T1, human NPY Y5 receptor; assay: Inhibitory effect on cAMP production in CHO cells; type: cell-based; conditions: CHO cells expressing human NPY Y5 receptor, 50 nM NPY, 10 μM forskolin; read-out: 50% inhibitory concentration (IC50 value) against the NPY activity on forskolin stimulated cAMP production
Protocol: CHO cells expressing human NPY Y5 receptor were incubated in the presence of 2.5 mM isobutylmethylxanthine (SIGMA) at 37° C. for 20 min. After the incubation the compound of the present invention was added, and then the mixture was incubated for 5 min. Next, 50 nM NPY and 10 μM forskolin (SIGMA) were added, and the mixture was incubated for 30 min. After termination of the reaction by adding 1N HCl, the amount of cAMP in the supernatant was determined with an EIA kit (Amersham LIFE SCIENCE). The inhibitory activity of NPY against forskolin stimulated cAMP production was expressed as 100% and the 50% inhibitory concentration (IC50 value) of the compound of the present invention against the NPY activity was calculated.

mouse NPY Y5 receptor, sequence (O70342 whole entry): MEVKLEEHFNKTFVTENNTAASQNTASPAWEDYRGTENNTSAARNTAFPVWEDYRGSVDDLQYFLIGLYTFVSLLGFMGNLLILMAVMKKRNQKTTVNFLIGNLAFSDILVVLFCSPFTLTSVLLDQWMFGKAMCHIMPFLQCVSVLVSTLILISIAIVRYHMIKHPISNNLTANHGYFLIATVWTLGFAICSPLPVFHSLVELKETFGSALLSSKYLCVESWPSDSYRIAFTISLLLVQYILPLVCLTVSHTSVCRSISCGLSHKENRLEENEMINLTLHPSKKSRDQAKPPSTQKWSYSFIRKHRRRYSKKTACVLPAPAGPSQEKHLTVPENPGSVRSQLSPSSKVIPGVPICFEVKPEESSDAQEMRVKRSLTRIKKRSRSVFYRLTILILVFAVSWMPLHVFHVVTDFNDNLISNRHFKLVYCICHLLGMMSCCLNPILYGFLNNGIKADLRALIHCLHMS
T1 sequence (Q15761 whole entry): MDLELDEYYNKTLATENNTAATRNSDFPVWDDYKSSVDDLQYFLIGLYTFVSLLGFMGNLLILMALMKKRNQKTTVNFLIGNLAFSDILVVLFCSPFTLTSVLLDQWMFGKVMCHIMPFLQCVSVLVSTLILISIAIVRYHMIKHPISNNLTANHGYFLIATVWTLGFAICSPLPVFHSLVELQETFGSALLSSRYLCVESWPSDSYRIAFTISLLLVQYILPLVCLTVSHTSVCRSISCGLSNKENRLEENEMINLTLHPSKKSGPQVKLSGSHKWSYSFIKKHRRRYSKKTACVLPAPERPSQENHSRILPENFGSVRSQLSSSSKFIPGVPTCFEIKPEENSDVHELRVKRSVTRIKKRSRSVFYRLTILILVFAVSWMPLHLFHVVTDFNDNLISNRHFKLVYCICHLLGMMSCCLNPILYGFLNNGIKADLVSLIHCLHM

Row | IC50 [1] [nM] | IC50 [2] [nM] | IC50 [3] [nM] | SMILES
1 | 4.21 |  |  | CC(C)(C)S(=O)(=O)NC[C@H]1CC[C@H](Nc2nc(C(F)(F)F)co2)CC1 [Compound I-146]
2 | 0.86 |  |  | CS(=O)(=O)NC[C@H]1CC[C@H](Nc2nc(-c3cccc(F)c3)no2)CC1 [Compound I-027]
3 | 0.8 |  |  | CC(C)S(=O)(=O)NC[C@H]1CC[C@H](Nc2nc(-c3ccc(F)cn3)no2)CC1 [Compound I-099]
4 | 0.8 |  |  | CC1(c2noc(N[C@H]3CC[C@H](CNS(=O)(=O)C(C)(C)C)CC3)n2)CC(F)(F)C1 [Compound I-143]
5 | 0.61 |  |  | CC(C)S(=O)(=O)NC[C@H]1CC[C@H](Nc2nc(C3(C)CC(F)(F)C3)no2)CC1 [Compound I-147]
6 | 1.5 |  |  | CC(C)(C)S(=O)(=O)NC[C@H]1CC[C@H](Nc2nc(C(F)(F)F)no2)CC1 [Compound I-136]
7 | 0.22 | 0.86 | 1.3 | CCS(=O)(=O)NC[C@H]1CC[C@H](Nc2nc(-c3ccc(F)c(F)c3)no2)CC1 [Compound I-029]
8 | 0.34 |  |  | CCS(=O)(=O)NC[C@H]1CC[C@H](Nc2nc(-c3ccccc3)no2)CC1 [Compound I-011]
9 | 1.9 |  |  | CC(C)(C)S(=O)(=O)NC[C@H]1CC[C@H](Nc2nc(C3(F)CC(F)(F)C3)no2)CC1 [Compound I-161]
10 | 3.1 |  |  | CC(C)S(=O)(=O)NC[C@H]1CC[C@H](Nc2nc(C(F)(F)F)no2)CC1 [Compound I-145]
11 | 3.6 |  |  | CC(C)S(=O)(=O)NC[C@H]1CC[C@H](Nc2nc(C(F)(F)F)co2)CC1 [Compound I-150]
12 | 1.4 |  |  | CS(=O)(=O)NC[C@H]1CC[C@H](Nc2nc(-c3ccc(F)cc3)no2)CC1 [Compound I-023]
13 | 0.22 | 0.81 | 3.3 | CCS(=O)(=O)NC[C@H]1CC[C@H](Nc2nc(-c3cccc(F)c3)no2)CC1 [Compound I-017]
14 | 0.7 |  |  | CC(C)(c1ccccc1)c1noc(N[C@H]2CC[C@H](CNS(=O)(=O)C(C)(C)C)CC2)n1 [Compound I-130]
15 | 0.5 |  |  | CCS(=O)(=O)NC[C@H]1CC[C@H](Nc2nc(C3(F)CCCC3)no2)CC1 [Compound I-138]
16 | 0.9 |  |  | CS(=O)(=O)NC[C@H]1CC[C@H](Nc2nc(-c3cccc(Cl)c3)no2)CC1 [Compound I-081]
17 | 0.65 |  |  | CC(C)S(=O)(=O)NC[C@H]1CC[C@H](Nc2nc(C(F)(F)C(F)(F)F)no2)CC1 [Compound I-152]
18 | 0.18 |  |  | CCS(=O)(=O)NC[C@H]1CC[C@H](Nc2nc(-c3ccc(F)cc3F)no2)CC1 [Compound I-034]
19 | 1.04 |  |  | CC(C)(C)S(=O)(=O)NC[C@H]1CC[C@H](Nc2nc(C(F)(F)C(F)(F)F)no2)CC1 [Compound I-149]
20 | 0.23 |  |  | CCS(=O)(=O)NC[C@H]1CC[C@H](Nc2nc(-c3cc(F)cc(F)c3)no2)CC1 [Compound I-053]
21 | 0.13 |  |  | CC(C)S(=O)(=O)NC[C@H]1CC[C@H](Nc2nc(-c3ccccc3)no2)CC1 [Compound I-024]
22 | 1.67 |  |  | CCS(=O)(=O)NC[C@H]1CC[C@H](Nc2nc(C(F)(F)C(F)(F)F)no2)CC1 [Compound I-153]
23 | 0.9 |  |  | CC(C)(C)S(=O)(=O)NC[C@H]1CC[C@H](Nc2nc(-c3ccc(F)cn3)no2)CC1 [Compound I-100]
24 | 0.2 |  | 2.1 | CC(C)S(=O)(=O)NC[C@H]1CC[C@H](Nc2nc(-c3cccc(F)c3)no2)CC1 [Compound I-018]
25 | 0.32 |  |  | CCS(=O)(=O)NC[C@H]1CC[C@H](Nc2nc(-c3ccc(F)cc3)no2)CC1 [Compound I-006]
